System: KRAS-mutant PDC complex spheroid viability
Assay: Anticancer human tumor 186277-243-T-J2-PDC patient-derived colon adenocarcinoma cell line growth inhibition [KRAS2]
Conditions: for IC50: curve of first compound; for viability, T/C: stronger effect = lower value
Method in brief: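 KRAS-mutant tumor cells were grown as spheroids with HUVEC endothelial cells and human MSCs as stroma. Targeted agents were tested alone and with KRAS pathway inhibitors. Doses started at or near clinical Cmax, or 10 microM, descending half-log.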

[1] = second compound 0.1 µM, first compound 0.0316 µM
[2] = second compound 0.1 µM, first compound 0.1 µM
[3] = second compound 0.1 µM, first compound 0.316 µM
[4] = second compound 0.1 µM, first compound 1 µM
[5] = second compound 0.1 µM, first compound 3.16 µM
[6] = second compound 0.316 µM, first compound 0.0316 µM
[7] = second compound 0.316 µM, first compound 0.1 µM
[8] = second compound 0.316 µM, first compound 0.316 µM
[9] = second compound 0.316 µM, first compound 1 µM
[10] = second compound 0.316 µM, first compound 3.16 µM
[11] = second compound 1 µM, first compound 0.0316 µM
[12] = second compound 1 µM, first compound 0.1 µM
[13] = second compound 1 µM, first compound 0.316 µM
[14] = second compound 1 µM, first compound 1 µM
[15] = second compound 1 µM, first compound 3.16 µM
[16] = second compound 3.16 µM, first compound 0.0316 µM
[17] = second compound 3.16 µM, first compound 0.1 µM
[18] = second compound 3.16 µM, first compound 0.316 µM
[19] = second compound 3.16 µM, first compound 1 µM
[20] = second compound 3.16 µM, first compound 3.16 µM
[21] = second compound 10 µM, first compound 0.0316 µM
[22] = second compound 10 µM, first compound 0.1 µM
[23] = second compound 10 µM, first compound 0.316 µM
[24] = second compound 10 µM, first compound 1 µM
[25] = second compound 10 µM, first compound 3.16 µM
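Throughout, for viability, T/C: viability read after seven days of compound exposure; 100% = DMSO vehicle-treated spheroids so lower means less viable.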

Work on COc1cc2nccc(Oc3ccc(NC(=O)C4(C(=O)Nc5ccc(F)cc5)CC4)cc3)c2cc1OC + COc1cc2nc(C)nc(NC(C)c3cc(N)cc(C(F)(F)F)c3)c2cc1OC1CCOC1 yielded an IC50 (second compound 0.1 µM) of 882 nM, an IC50 (second compound 0.316 µM) of 866 nM and an IC50 (second compound 1 µM) of 779 nM. For the same molecule, the IC50 (second compound 3.16 µM) was 726 nM, the IC50 (second compound 10 µM) was 187 nM and the viability, T/C [1] was 98.2%. For the same molecule, the viability, T/C [2] was 112%, the viability, T/C [3] was 114% and the viability, T/C [4] was 12.5%. The viability, T/C [5] was 15.8%, the viability, T/C (second compound 0.1 µM, first compound 10 µM) was 101% and the viability, T/C [6] was 105%. For the same molecule, the viability, T/C [7] was 102%, the viability, T/C [8] was 97.8% and the viability, T/C [9] was 13.9%. It also gave a viability, T/C [10] of 13.5%, a viability, T/C (second compound 0.316 µM, first compound 10 µM) of 102% and a viability, T/C [11] of 108%. For the same molecule, the viability, T/C [12] was 108%, the viability, T/C [13] was 82.2% and the viability, T/C [14] was 11.3%. It also gave a viability, T/C [15] of 10.7%, a viability, T/C (second compound 1 µM, first compound 10 µM) of 101% and a viability, T/C [16] of 114%. The viability, T/C [17] was 114%, the viability, T/C [18] was 80.7% and the viability, T/C [19] was 9.28%. For the same molecule, the viability, T/C [20] was 1.53%, the viability, T/C (second compound 3.16 µM, first compound 10 µM) was 104% and the viability, T/C [21] was 92.2%. It also gave a viability, T/C [22] of 66.9%, a viability, T/C [23] of 39.4% and a viability, T/C [24] of 1.55%. For the same molecule, the viability, T/C [25] was 0.17% and the viability, T/C (second compound 10 µM, first compound 10 µM) was 89%.
CC1COCCN1c1cc(-c2ccnn2C)c2ccnc(-c3ccn[nH]3)c2n1 (stereo not given) + COc1cc2nc(C)nc(NC(C)c3cc(N)cc(C(F)(F)F)c3)c2cc1OC1CCOC1 was tested, and the IC50 (second compound 0.1 µM) was less than 10 nM, the IC50 (second compound 0.316 µM) was 21.2 nM and the IC50 (second compound 1 µM) was 19.9 nM. For the same molecule, the IC50 (second compound 3.16 µM) was 19.9 nM, the IC50 (second compound 10 µM) was 18.9 nM and the viability, T/C (second compound 0.1 µM, first compound 0.01 µM) was 5.03%. The viability, T/C [1] was 4.38%, the viability, T/C [2] was 3.41% and the viability, T/C [3] was 2.71%. It also gave a viability, T/C [4] of 2.04%, a viability, T/C [5] of 1.41% and a viability, T/C (second compound 0.316 µM, first compound 0.01 µM) of 98.5%. It also gave a viability, T/C [6] of 24.3%, a viability, T/C [7] of 3.67% and a viability, T/C [8] of 2.88%. The viability, T/C [9] was 2.23%, the viability, T/C [10] was 3.71% and the viability, T/C (second compound 1 µM, first compound 0.01 µM) was 98.9%. It also gave a viability, T/C [11] of 17.2%, a viability, T/C [12] of 4.4% and a viability, T/C [13] of 3.51%. For the same molecule, the viability, T/C [14] was 3.19%, the viability, T/C [15] was 3.55% and the viability, T/C (second compound 3.16 µM, first compound 0.01 µM) was 99.5%. The viability, T/C [16] was 16.4%, the viability, T/C [17] was 3.55% and the viability, T/C [18] was 2.87%. For the same molecule, the viability, T/C [19] was 1.93%, the viability, T/C [20] was 3.19% and the viability, T/C (second compound 10 µM, first compound 0.01 µM) was 103%. The viability, T/C [21] was 7.22%, the viability, T/C [22] was 3.43% and the viability, T/C [23] was 2.48%. The viability, T/C [24] was 2.25% and the viability, T/C [25] was 2.72%.

— PubChem BioAssay AID1963875 (Molecular Pharmacology Branch, DTP, NCI, 2024)
